Four compounds from patent US11441119B2, “Culture media comprising n-Acyl-X-glutamine dipeptides” (Evonik Operations GmbH, priority 2017, dated 2022) can be followed below.

Residues, ends and D or L forms follow the SMILES beside them.

Assay [1] relates to Chinese Hamster Ovary (CHO) cells (Subclone DG44). Nature of the assay: Batch cultivation of CHO DG44 cells in glutamine-free PowerCHO-2 CD medium supplemented with glutamine sources: growth and productivity. Format: cell-based. The following applies: for Relative cell-specific productivity: relative titer/IVCD relative to 100% free glutamine; for Relative time-related productivity: relative titer/cultivation time relative to free glutamine; for Relative titer / Cultivation time until 80% viability / Integrated viable cell density (IVCD): total glutamine 8 mM; for Relative titer: relative to titer of 100% free glutamine; for Cultivation time until 80% viability / Integrated viable cell density (IVCD): third passage; for Integrated viable cell density (IVCD): until viability below 80%; for Performance in batch cultivation, in words (titer, productivities): comparison of the supplements of Tables 1 and 2. Here is the method: Acetyl-A-Q was mixed with free glutamine or A-Q in molar ratios between 0 and 100%. The mixtures were added to a glutamine-free medium (PowerCHO-2 CD, Lonza AG, Visp, Switzerland) to obtain a total glutamine concentration of 8 mM in the final medium. Growth and productivity were measured using Chinese Hamster Ovary (CHO) cells (Subclone DG44; Life Technologies Cooperation, Carlsbad, USA). Cultivation was continued up to the point where the viability of the culture dropped below 80%. Data from the third passage was used. All titer-related information is given relative to the titer of 100% free glutamine. Accordingly, the relative cell-specific productivity was obtained by first dividing the relative titer by the integrated viable cell density (IVCD), then dividing this number by the titer/IVCD ratio for 100% free glutamine. The relative time-specific productivity was obtained by dividing the relative titer by the cultivation duration until the sampling, then dividing this number by the titer/cultivation time ratio for free glutamine. In a second set of experiments within the same experimental campaign, acetyl-A-Q was mixed with A-Q and tested under the same conditions as described above. The 100% points for acetyl-A-Q as well as the free glutamine reference are identical to the first example.

Assay [2] shares this test system. Kind of assay: Fed-batch cultivation of CHO DG44 cells with glutamine sources in basal medium and feed supplement: growth and productivity. Format: cell-based. Here is the method: Free glutamine, A-Q or Acetyl-A-Q were added to a glutamine-free medium (PowerCHO-2 CD, Lonza AG, Visp, Switzerland) to obtain a total glutamine concentration of 8 mM in the final medium.
In addition, these substances as well as a 75% mixture of acetyl-A-Q and A-Q were added to a glutamine-free formulation of a commercial feed supplement (CHOMACS Feed Supplement, Miltenyi Biotech, Germany) to yield a glutamine concentration of 5.5 g/L. Growth and productivity were measured using Chinese Hamster Ovary (CHO) cells (Subclone DG44; Life Technologies Cooperation, Carlsbad, USA).The results are summarized in Table 3. All titer-related information is given relative to the titer obtained by adding free glutamine to basal medium and feed. Accordingly, the relative cell-specific productivity was obtained by first dividing the relative titer by the integrated viable cell density (IVCD), then dividing this number by the titer/IVCD ratio for 100% free glutamine. The relative time-specific productivity was obtained by dividing the relative titer by the cultivation duration until the sampling, then dividing this number by the titer/cultivation time ratio for free glutamine.

The mark [3] stands for this setting: basal medium source/feed source, 8 mM glutamine in medium, 5.5 g/L in feed.

With `C[C@H](N)C(=O)N[C@@H](CCC(N)=O)C(=O)O` [100% AQ, alanyl-glutamine] (H-Ala-Gln-OH), in assay [1] (acetyl-A-Q mixed with A-Q), the Relative cell-specific productivity is given as 75%, the Relative time-related productivity worked out at 102%, the Relative titer turned out to be 1.10 and the “Cultivation time until 80% viability” value came to 13.9. Also, in assay [1] (acetyl-A-Q mixed with A-Q), the “Integrated viable cell density (IVCD)” value is 47.1. In assay [1], the “Performance in batch cultivation, in words (titer, productivities)” value is given as “performs at a lower level in all relevant categories”.

Turning to `NC(=O)CC[C@H](N)C(=O)O` [100% Q, L-glutamine], in assay [1] (acetyl-A-Q mixed with A-Q), the Relative cell-specific productivity came to 100%, the Relative time-related productivity came out at 100%, the Relative titer is 1.00 and the “Cultivation time until 80% viability” value is on record as 12.9. In assay [1] (acetyl-A-Q mixed with A-Q), the “Integrated viable cell density (IVCD)” value came out at 32.0. Besides, in assay [1] (acetyl-A-Q mixed with free Q), the Relative cell-specific productivity is reported as 100%, the Relative time-related productivity turned out to be 100%, the Relative titer came to 1.00 and the “Cultivation time until 80% viability” value worked out at 12.9. In addition, the “Integrated viable cell density (IVCD)” value in assay [1] (acetyl-A-Q mixed with free Q) turned out to be 32.0.

As to `CC(=O)N[C@@H](C)C(=O)N[C@@H](CCC(N)=O)C(=O)O` [100% acetyl-A-Q, acetyl-A-Q] (Ac-Ala-Gln-OH), in assay [1] (acetyl-A-Q mixed with A-Q), the Relative cell-specific productivity turned out to be 434%, the Relative time-related productivity was determined as 99%, the Relative titer was 1.37 and the “Cultivation time until 80% viability” value is recorded as 17.9. Further, in assay [1] (acetyl-A-Q mixed with A-Q), the “Integrated viable cell density (IVCD)” value was 10.1. In assay [1] (acetyl-A-Q mixed with free Q), the Relative cell-specific productivity came to 434%, the Relative time-related productivity was determined as 99%, the Relative titer turned out to be 1.37 and the “Cultivation time until 80% viability” value came out at 17.9. The “Integrated viable cell density (IVCD)” value in assay [1] (acetyl-A-Q mixed with free Q) is reported as 10.1. Moreover, the “Performance in batch cultivation, in words (titer, productivities)” value in assay [1] is “best values for relative titer and cell-specific productivity”. In addition, the “Performance in fed-batch cultivation, in words (productivity, cell density, titer)” value in assay [2] (comparison of the combinations of Table 3) is “very high cell-specific productivities, but very low cell density”.

`CC(=O)N[C@@H](C)C(=O)N[C@@H](CCC(N)=O)C(=O)O` [Acetyl A-Q/acetyl-A-Q] (Ac-Ala-Gln-OH): in assay [2] (setting [3]), the “Cultivation time until 80% viability” value stood at 15.0 and the “Integrated viable cell density (IVCD)” value was determined as 8.2. The Relative cell-specific productivity in assay [2] (relative titer/IVCD relative to 100% free glutamine) was 145%. The compound also came in with a Relative time-related productivity in assay [2] (relative titer/cultivation time relative to free glutamine) of 18%. The same compound returned a Relative titer in assay [2] (relative to titer with free glutamine in basal medium and feed) of 0.2.
